Laboratory results reported in patent US20240239861A1, “GLUCAGON-RECEPTOR SELECTIVE POLYPEPTIDES AND METHODS OF USE THEREOF” (i2O Therapeutics, Inc., priority 2016, published 2024).
pEC50: −log10 of the molar value. Read-outs that look alike come from different tables or passages of the source. *1 amine or outer side, *2 acyl side, *3 side chain or, on linkers, in order; H or OH if unused. Where a SMILES comes first, the peptide text is derived from it. Side-chain parts run from the residue outwards. [ ]: non-standard residue; d: D form. The star is where a group is joined. γGlu = O=C(O)[C@H](CCC(=O)[*:2])N[*:1]; Palmitoyl = CCCCCCCCCCCCCCCC(=O)*; Aib = CC(C)(N)C(=O)O

Columns and labels:
human GCGR = human GCGR (Homo sapiens, UniProt P47871); assay: Peptide-receptor mediated cAMP accumulation (LANCE Ultra cAMP) in CHO-K1 cells transfected with human GCGR; assay type: cell-based; conditions: for pEC50: Table 3; for EC50: read-out: GluR pEC50 (converted)
human GLP-1R = human GLP-1R (Homo sapiens, UniProt P43220); assay: Peptide-receptor mediated cAMP accumulation (LANCE Ultra cAMP) in CHO-K1 cells transfected with human GLP-1R; assay type: cell-based; conditions: for pEC50: hGLP1 pEC50 (cAMP mean (n = 3): 11 point curve starting at 1 nM, Table 3); for EC50: Table 7, GLP-1R, read-out: GLP-1R pEC50 (converted)
Chain of human GLP-1R (P43220 24-463): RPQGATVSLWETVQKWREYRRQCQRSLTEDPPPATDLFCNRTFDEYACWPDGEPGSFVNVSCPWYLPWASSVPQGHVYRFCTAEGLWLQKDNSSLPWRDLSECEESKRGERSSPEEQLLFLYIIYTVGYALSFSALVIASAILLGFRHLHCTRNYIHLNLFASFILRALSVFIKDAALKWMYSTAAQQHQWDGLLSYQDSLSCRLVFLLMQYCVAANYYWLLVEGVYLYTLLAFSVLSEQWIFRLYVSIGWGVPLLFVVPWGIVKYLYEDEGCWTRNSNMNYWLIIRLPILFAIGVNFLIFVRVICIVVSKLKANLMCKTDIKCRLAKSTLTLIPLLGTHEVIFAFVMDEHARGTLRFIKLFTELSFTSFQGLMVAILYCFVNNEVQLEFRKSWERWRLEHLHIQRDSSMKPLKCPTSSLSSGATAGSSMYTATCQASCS

Chain of human GCGR (P47871 26-477): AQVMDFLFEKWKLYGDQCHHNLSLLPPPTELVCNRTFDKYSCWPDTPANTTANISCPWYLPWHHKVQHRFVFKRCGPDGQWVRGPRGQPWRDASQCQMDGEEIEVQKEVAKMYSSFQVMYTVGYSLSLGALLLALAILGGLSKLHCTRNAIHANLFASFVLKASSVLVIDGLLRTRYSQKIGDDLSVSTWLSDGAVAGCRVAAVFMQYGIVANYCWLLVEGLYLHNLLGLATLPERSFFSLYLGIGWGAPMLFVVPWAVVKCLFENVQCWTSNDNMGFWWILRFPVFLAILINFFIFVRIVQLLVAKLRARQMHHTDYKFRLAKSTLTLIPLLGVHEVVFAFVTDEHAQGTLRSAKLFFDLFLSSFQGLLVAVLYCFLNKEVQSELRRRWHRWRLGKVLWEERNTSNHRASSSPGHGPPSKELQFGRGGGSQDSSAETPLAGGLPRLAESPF

pEC50 (human GCGR) | pEC50 (human GLP-1R) | Structure (SMILES) | EC50 (human GCGR) [nM] | EC50 (human GLP-1R) [nM]
11.10 | < 9.00 | CC(C)C[C@H](NC(=O)[C@H](Cc1ccc(O)cc1)NC(=O)[C@H](CCCCN)NC(=O)[C@H](CO)NC(=O)[C@H](Cc1ccc(O)cc1)NC(=O)[C@H](CC(=O)O)NC(=O)[C@H](CO)NC(=O)[C@@H](NC(=O)[C@H](Cc1ccccc1)NC(=O)[C@@H](NC(=O)CNC(=O)[C@H](Cc1c[nH]cn1)NC(=O)[C@H](CO)NC(=O)[C@@H](N)Cc1ccc(O)cc1)[C@@H](C)O)[C@@H](C)O)C(=O)N[C@@H](CC(=O)O)C(=O)NC(C)(C)C(=O)N[C@@H](CCCCN)C(=O)N[C@@H](CCCNC(=N)N)C(=O)N[C@@H](C)C(=O)N[C@@H](CCC(N)=O)C(=O)N[C@@H](CCC(=O)O)C(=O)N[C@@H](Cc1ccccc1)C(=O)N[C@H](C(=O)NC(C)(C)C(=O)N[C@@H](Cc1c[nH]c2ccccc12)C(=O)N[C@@H](CC(C)C)C(=O)N[C@@H](CCC(=O)O)C(=O)N[C@@H](CC(=O)O)C(=O)N[C@@H](CCC(=O)O)C(=O)N1CCC[C@H]1C(=O)N[C@@H](CO)C(=O)N[C@@H](CO)C(=O)NCC(=O)N[C@@H](CCC(=O)O)C(=O)N1CCC[C@H]1C(=O)N1CCC[C@H]1C(=O)N1CCC[C@H]1C(=O)N[C@@H](CO)C(=O)O)C(C)C [Compound A21] (H-YSHGTFTSDYSKYLD[Aib]KRAQEFV[Aib]WLEDEPSSGEPPPS-OH; N-terminus assumed) |  | 
 |  | CCCCCCCCCCCCCCCC(=O)N[C@@H](CCC(=O)NCCCC[C@H](NC(=O)[C@@H](NC(=O)[C@H](Cc1ccccc1)NC(=O)[C@H](CCC(=O)O)NC(=O)[C@H](CCC(N)=O)NC(=O)[C@H](C)NC(=O)[C@H](CCCNC(=N)N)NC(=O)[C@H](C)NC(=O)[C@H](CO)NC(=O)[C@H](CC(=O)O)NC(=O)[C@H](CC(C)C)NC(=O)[C@H](Cc1ccc(O)cc1)NC(=O)[C@H](CCCCN)NC(=O)[C@H](CO)NC(=O)[C@H](Cc1ccc(O)cc1)NC(=O)[C@H](CC(=O)O)NC(=O)[C@H](CO)NC(=O)[C@@H](NC(=O)[C@H](Cc1ccccc1)NC(=O)[C@@H](NC(=O)CNC(=O)[C@H](Cc1c[nH]cn1)NC(=O)[C@H](CO)NC(=O)[C@@H](N)Cc1ccc(O)cc1)[C@@H](C)O)[C@@H](C)O)C(C)C)C(=O)N[C@@H](Cc1c[nH]c2ccccc12)C(=O)N[C@@H](CC(C)C)C(=O)N[C@@H](CCC(=O)O)C(=O)N[C@@H](CC(=O)O)C(=O)N[C@@H](CCC(=O)O)C(=O)N1CCC[C@H]1C(=O)N[C@@H](CO)C(=O)N[C@@H](CO)C(=O)NCC(=O)N[C@@H](C)C(=O)N1CCC[C@H]1C(=O)N1CCC[C@H]1C(=O)N1CCC[C@H]1C(=O)N[C@@H](CO)C(N)=O)C(=O)O [Compound B42] (H-YSHGTFTSDYSKYLDSARAQEFVK([γGlu-Palmitoyl])WLEDEPSSGAPPPS-NH2) | 0.2 | > 1000
 |  | CC(C)C[C@H](NC(=O)[C@H](Cc1ccc(O)cc1)NC(=O)[C@H](CCCCN)NC(=O)[C@H](CO)NC(=O)[C@H](Cc1ccc(O)cc1)NC(=O)[C@H](CC(=O)O)NC(=O)[C@H](CO)NC(=O)[C@@H](NC(=O)[C@H](Cc1ccccc1)NC(=O)[C@@H](NC(=O)CNC(=O)[C@H](Cc1c[nH]cn1)NC(=O)[C@H](CO)NC(=O)[C@@H](N)Cc1ccc(O)cc1)[C@@H](C)O)[C@@H](C)O)C(=O)N[C@@H](CC(=O)O)C(=O)NC(C)(C)C(=O)N[C@@H](CCCCN)C(=O)N[C@@H](CO)C(=O)N[C@@H](C)C(=O)N[C@@H](CCC(N)=O)C(=O)N[C@@H](CCC(=O)O)C(=O)N[C@@H](Cc1ccccc1)C(=O)N[C@H](C(=O)NC(C)(C)C(=O)N[C@@H](Cc1c[nH]c2ccccc12)C(=O)N[C@@H](CC(C)C)C(=O)N[C@@H](CCC(=O)O)C(=O)N[C@@H](CC(=O)O)C(=O)N[C@@H](CCC(=O)O)C(=O)N1CCC[C@H]1C(=O)N[C@@H](CO)C(=O)N[C@@H](CO)C(=O)N[C@@H](CCCCNC(=O)COCCOCCNC(=O)COCCOCCNC(=O)CC[C@H](NC(=O)CCCCCCCCCCCCCCCCC(=O)O)C(=O)O)C(=O)N[C@@H](C)C(=O)N1CCC[C@H]1C(=O)N1CCC[C@H]1C(=O)N1CCC[C@H]1C(=O)N[C@@H](CO)C(=O)O)C(C)C [Compound B13] | 0.631 | > 1000
 |  | CCCCCCCCCCCCCCCC(=O)N[C@@H](CCC(=O)NCCCC[C@H](NC(=O)[C@@H](NC(=O)[C@H](Cc1ccccc1)NC(=O)[C@H](CCC(=O)O)NC(=O)[C@H](CCC(N)=O)NC(=O)[C@H](C)NC(=O)[C@H](CO)NC(=O)[C@H](CCCCN)NC(=O)C(C)(C)NC(=O)[C@H](CC(=O)O)NC(=O)[C@H](CC(C)C)NC(=O)[C@H](Cc1ccc(O)cc1)NC(=O)[C@H](CCCCN)NC(=O)[C@H](CO)NC(=O)[C@H](Cc1ccc(O)cc1)NC(=O)[C@H](CC(=O)O)NC(=O)[C@H](CO)NC(=O)[C@@H](NC(=O)[C@H](Cc1ccccc1)NC(=O)[C@@H](NC(=O)CNC(=O)[C@H](Cc1c[nH]cn1)NC(=O)[C@H](CO)NC(=O)[C@@H](N)Cc1ccc(O)cc1)[C@@H](C)O)[C@@H](C)O)C(C)C)C(=O)N[C@@H](Cc1c[nH]c2ccccc12)C(=O)N[C@@H](CC(C)C)C(=O)N[C@@H](CCC(=O)O)C(=O)N[C@@H](CC(=O)O)C(=O)N[C@@H](CCC(=O)O)C(=O)N1CCC[C@H]1C(=O)N[C@@H](CO)C(=O)N[C@@H](CO)C(=O)NCC(=O)N[C@@H](C)C(=O)N1CCC[C@H]1C(=O)N1CCC[C@H]1C(=O)N1CCC[C@H]1C(=O)N[C@@H](CO)C(=O)O)C(=O)O [Compound B10] | 0.126 | > 1000
11.00 | < 9.00 | CC(C)C[C@H](NC(=O)[C@H](Cc1ccc(O)cc1)NC(=O)[C@H](CCCCN)NC(=O)[C@H](CO)NC(=O)[C@H](Cc1ccc(O)cc1)NC(=O)[C@H](CC(=O)O)NC(=O)[C@H](CO)NC(=O)[C@@H](NC(=O)[C@H](Cc1ccccc1)NC(=O)[C@@H](NC(=O)CNC(=O)[C@H](CCC(N)=O)NC(=O)[C@H](CO)NC(=O)[C@@H](N)Cc1ccc(O)cc1)[C@@H](C)O)[C@@H](C)O)C(=O)N[C@@H](CC(=O)O)C(=O)N[C@@H](CO)C(=O)N[C@@H](C)C(=O)N[C@@H](CCCNC(=N)N)C(=O)N[C@@H](C)C(=O)N[C@@H](CCC(N)=O)C(=O)N[C@@H](CCC(=O)O)C(=O)N[C@@H](Cc1ccccc1)C(=O)N[C@H](C(=O)N[C@@H](CCCCN)C(=O)N[C@@H](Cc1c[nH]c2ccccc12)C(=O)N[C@@H](CC(C)C)C(=O)N[C@@H](CCC(=O)O)C(=O)N[C@@H](CC(=O)O)C(=O)N[C@@H](CCC(=O)O)C(=O)N1CCC[C@H]1C(=O)N[C@@H](CCCCN)C(=O)N[C@@H](CO)C(=O)N[C@@H](CCCCN)C(=O)N[C@@H](C)C(=O)N1CCC[C@H]1C(=O)N1CCC[C@H]1C(=O)N1CCC[C@H]1C(=O)N[C@@H](CO)C(=O)O)C(C)C [Compound A82] (H-YSQGTFTSDYSKYLDSARAQEFVKWLEDEPKSKAPPPS-OH; N-terminus assumed) |  | 
 |  | CC(C)C[C@H](NC(=O)[C@H](Cc1ccc(O)cc1)NC(=O)[C@H](CCCCN)NC(=O)[C@H](CO)NC(=O)[C@H](Cc1ccc(O)cc1)NC(=O)[C@H](CC(=O)O)NC(=O)[C@H](CO)NC(=O)[C@@H](NC(=O)[C@H](Cc1ccccc1)NC(=O)[C@@H](NC(=O)CNC(=O)[C@H](Cc1c[nH]cn1)NC(=O)[C@H](CO)NC(=O)[C@@H](N)Cc1ccc(O)cc1)[C@@H](C)O)[C@@H](C)O)C(=O)N[C@@H](CC(=O)O)C(=O)NC(C)(C)C(=O)N[C@@H](CCCCN)C(=O)N[C@@H](Cc1ccc(O)cc1)C(=O)N[C@@H](C)C(=O)N[C@@H](CCC(N)=O)C(=O)N[C@@H](CCC(=O)O)C(=O)N[C@@H](Cc1ccccc1)C(=O)N[C@H](C(=O)NC(C)(C)C(=O)N[C@@H](Cc1c[nH]c2ccccc12)C(=O)N[C@@H](CC(C)C)C(=O)N[C@@H](CCC(=O)O)C(=O)N[C@@H](CC(=O)O)C(=O)N[C@@H](CCC(=O)O)C(=O)N1CCC[C@H]1C(=O)N[C@@H](CO)C(=O)N[C@@H](CO)C(=O)N[C@@H](CCCCNC(=O)COCCOCCNC(=O)COCCOCCNC(=O)CC[C@H](NC(=O)CCCCCCCCCCCCCCCCC(=O)O)C(=O)O)C(=O)N[C@@H](C)C(=O)N1CCC[C@H]1C(=O)N1CCC[C@H]1C(=O)N1CCC[C@H]1C(=O)N[C@@H](CO)C(=O)O)C(C)C [Compound B5] | 0.251 | > 1000

Structure (SMILES) | pEC50 (human GCGR) | pEC50 (human GLP-1R) | EC50 (human GCGR) [nM] | EC50 (human GLP-1R) [nM]
CC(C)C[C@H](NC(=O)[C@H](Cc1ccc(O)cc1)NC(=O)[C@H](CCCCN)NC(=O)[C@H](CO)NC(=O)[C@H](Cc1ccc(O)cc1)NC(=O)[C@H](CC(=O)O)NC(=O)[C@H](CO)NC(=O)[C@@H](NC(=O)[C@H](Cc1ccccc1)NC(=O)[C@@H](NC(=O)CNC(=O)[C@H](Cc1c[nH]cn1)NC(=O)[C@H](CO)NC(=O)[C@@H](N)Cc1ccc(O)cc1)[C@@H](C)O)[C@@H](C)O)C(=O)N[C@@H](CC(=O)O)C(=O)NC(C)(C)C(=O)N[C@@H](CCCCN)C(=O)N[C@@H](CCCNC(=N)N)C(=O)N[C@@H](C)C(=O)N[C@@H](CCC(N)=O)C(=O)N[C@@H](CCC(=O)O)C(=O)N[C@@H](Cc1ccccc1)C(=O)N[C@H](C(=O)NC(C)(C)C(=O)N[C@@H](Cc1c[nH]c2ccccc12)C(=O)N[C@@H](CC(C)C)C(=O)N[C@@H](CCC(=O)O)C(=O)N[C@@H](CC(=O)O)C(=O)N[C@@H](CCC(=O)O)C(=O)N1CCC[C@H]1C(=O)N[C@@H](CO)C(=O)N[C@@H](CO)C(=O)NCC(=O)N[C@@H](C)C(=O)N1CCC[C@H]1C(=O)N1CCC[C@H]1C(=O)N1CCC[C@H]1C(=O)N[C@@H](CO)C(=O)N[C@@H](CCC(=O)O)C(=O)O)C(C)C [Compound A26] (H-YSHGTFTSDYSKYLD[Aib]KRAQEFV[Aib]WLEDEPSSGAPPPSE-OH; N-terminus assumed) | 11.10 | < 9.00 |  | 
